According to PubChem BioAssay (NCI):
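Abbreviation: GI50, concentration required for 50% inhibition of growth. TGI marks complete inhibition of growth.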

Tests used:
Assay in all cases: NCI tumour cell line growth inhibition, 384-well format
A549 NSCLC = tested on: A549 NSCLC
SW-620 colon = tested on: SW-620 colon
DU-145 prostate = tested on: DU-145 prostate
RXF 393 renal = tested on: RXF 393 renal
NCI-H23 lung = tested on: NCI-H23 lung
U251 glioblastoma = tested on: U251 glioblastoma
SK-MEL-2 melanoma = tested on: SK-MEL-2 melanoma
MOLT-4 leukemia = tested on: MOLT-4 leukemia
COLO 205 colon = tested on: COLO 205 colon
MDA-MB-468 breast = tested on: MDA-MB-468 breast
SF-539 CNS = tested on: SF-539 CNS
ACHN renal = tested on: ACHN renal
HCC-2998 colon = tested on: HCC-2998 colon
HOP-92 NSCLC = tested on: HOP-92 NSCLC
RPMI-8226 leukemia = tested on: RPMI-8226 leukemia
SK-OV-3 ovarian = tested on: SK-OV-3 ovarian
HCT-116 colon = tested on: HCT-116 colon
SF-295 CNS = tested on: SF-295 CNS
A498 renal = tested on: A498 renal
PC-3 prostate = tested on: PC-3 prostate
NCI-H226 lung = tested on: NCI-H226 lung
OVCAR-3 ovarian = tested on: OVCAR-3 ovarian
CAKI-1 renal = tested on: CAKI-1 renal
SK-MEL-28 melanoma = tested on: SK-MEL-28 melanoma
TK-10 renal = tested on: TK-10 renal
UACC-62 melanoma = tested on: UACC-62 melanoma
SF-268 CNS = tested on: SF-268 CNS
HS 578T breast = tested on: HS 578T breast
NCI-H322M lung = tested on: NCI-H322M lung
K-562 leukemia = tested on: K-562 leukemia
KM12 colon = tested on: KM12 colon
UO-31 renal = tested on: UO-31 renal
SNB-19 CNS = tested on: SNB-19 CNS
MDA-MB-231 breast = tested on: MDA-MB-231 breast
OVCAR-5 ovarian = tested on: OVCAR-5 ovarian
MDA-MB-435 melanoma = tested on: MDA-MB-435 melanoma
SNB-75 CNS = tested on: SNB-75 CNS
HT29 colon = tested on: HT29 colon
OVCAR-4 ovarian = tested on: OVCAR-4 ovarian
UACC-257 melanoma = tested on: UACC-257 melanoma
NCI/ADR-RES ovarian = tested on: NCI/ADR-RES ovarian
NCI-H460 NSCLC = tested on: NCI-H460 NSCLC
MCF7 breast = tested on: MCF7 breast
HCT-15 colon = tested on: HCT-15 colon
SR leukemia = tested on: SR leukemia
LOX IMVI melanoma = tested on: LOX IMVI melanoma
786-0 renal = tested on: 786-0 renal

**Q.** For `O=C1CC[C@H](N2Cc3c(OCc4ccc(CN5CCOCC5)cc4)cccc3C2=O)C(=O)N1`, which GI50 (A549 NSCLC) is on record?
**A.** The GI50 was > 100 µM.

**Q.** What about the TGI (A549 NSCLC) of the same molecule?
**A.** The TGI was > 100 µM.

**Q.** And the GI50 (SW-620 colon)?
**A.** Its GI50 is > 100 µM.

**Q.** What about the TGI (SW-620 colon) of the same molecule?
**A.** Its TGI is > 100 µM.

**Q.** What about the GI50 (DU-145 prostate) of the same molecule?
**A.** Its GI50 is > 100 µM.

**Q.** And the TGI (DU-145 prostate)?
**A.** Its TGI is > 100 µM.

**Q.** What about the GI50 (RXF 393 renal) of the same molecule?
**A.** Its GI50 is > 100 µM.

**Q.** And the TGI (RXF 393 renal)?
**A.** The TGI was > 100 µM.

**Q.** What about the GI50 (NCI-H23 lung) of the same molecule?
**A.** The GI50 was > 100 µM.

**Q.** And the TGI (NCI-H23 lung)?
**A.** Its TGI is > 100 µM.

**Q.** And the GI50 (U251 glioblastoma)?
**A.** The GI50 was > 100 µM.

**Q.** What about the TGI (U251 glioblastoma) of the same molecule?
**A.** The TGI was > 100 µM.

**Q.** What about the GI50 (SK-MEL-2 melanoma) of the same molecule?
**A.** Its GI50 is > 100 µM.

**Q.** What about the TGI (SK-MEL-2 melanoma) of the same molecule?
**A.** Its TGI is > 100 µM.

**Q.** And the GI50 (MOLT-4 leukemia)?
**A.** Its GI50 is > 100 µM.

**Q.** And the TGI (MOLT-4 leukemia)?
**A.** Its TGI is > 100 µM.

**Q.** And the GI50 (COLO 205 colon)?
**A.** The GI50 was > 100 µM.

**Q.** And the TGI (COLO 205 colon)?
**A.** Its TGI is > 100 µM.

**Q.** What about the GI50 (MDA-MB-468 breast) of the same molecule?
**A.** The GI50 was > 100 µM.

**Q.** And the TGI (MDA-MB-468 breast)?
**A.** The TGI was > 100 µM.

**Q.** What about the GI50 (SF-539 CNS) of the same molecule?
**A.** The GI50 was > 100 µM.

**Q.** What about the TGI (SF-539 CNS) of the same molecule?
**A.** Its TGI is > 100 µM.

**Q.** And the GI50 (ACHN renal)?
**A.** The GI50 was > 100 µM.

**Q.** And the TGI (ACHN renal)?
**A.** The TGI was > 100 µM.

**Q.** And the GI50 (HCC-2998 colon)?
**A.** Its GI50 is > 100 µM.

**Q.** And the TGI (HCC-2998 colon)?
**A.** The TGI was > 100 µM.

**Q.** And the GI50 (HOP-92 NSCLC)?
**A.** Its GI50 is > 100 µM.

**Q.** What about the TGI (HOP-92 NSCLC) of the same molecule?
**A.** Its TGI is > 100 µM.

**Q.** And the GI50 (RPMI-8226 leukemia)?
**A.** The GI50 was 11.9 µM.

**Q.** What about the TGI (RPMI-8226 leukemia) of the same molecule?
**A.** The TGI was > 100 µM.

**Q.** And the GI50 (SK-OV-3 ovarian)?
**A.** Its GI50 is > 100 µM.

**Q.** And the TGI (SK-OV-3 ovarian)?
**A.** The TGI was > 100 µM.

**Q.** And the GI50 (HCT-116 colon)?
**A.** Its GI50 is > 100 µM.

**Q.** And the TGI (HCT-116 colon)?
**A.** The TGI was > 100 µM.

**Q.** What about the GI50 (SF-295 CNS) of the same molecule?
**A.** Its GI50 is > 100 µM.

**Q.** And the TGI (SF-295 CNS)?
**A.** The TGI was > 100 µM.

**Q.** What about the GI50 (A498 renal) of the same molecule?
**A.** Its GI50 is > 100 µM.

**Q.** And the TGI (A498 renal)?
**A.** Its TGI is > 100 µM.

**Q.** What about the GI50 (PC-3 prostate) of the same molecule?
**A.** The GI50 was > 100 µM.

**Q.** And the TGI (PC-3 prostate)?
**A.** The TGI was > 100 µM.

**Q.** What about the GI50 (NCI-H226 lung) of the same molecule?
**A.** The GI50 was > 100 µM.

**Q.** What about the TGI (NCI-H226 lung) of the same molecule?
**A.** Its TGI is > 100 µM.

**Q.** And the GI50 (OVCAR-3 ovarian)?
**A.** Its GI50 is > 100 µM.

**Q.** What about the TGI (OVCAR-3 ovarian) of the same molecule?
**A.** Its TGI is > 100 µM.

**Q.** And the GI50 (CAKI-1 renal)?
**A.** Its GI50 is > 100 µM.

**Q.** What about the TGI (CAKI-1 renal) of the same molecule?
**A.** Its TGI is > 100 µM.

**Q.** And the GI50 (SK-MEL-28 melanoma)?
**A.** The GI50 was > 100 µM.

**Q.** And the TGI (SK-MEL-28 melanoma)?
**A.** Its TGI is > 100 µM.

**Q.** And the GI50 (TK-10 renal)?
**A.** The GI50 was > 100 µM.

**Q.** And the TGI (TK-10 renal)?
**A.** The TGI was > 100 µM.

**Q.** And the GI50 (UACC-62 melanoma)?
**A.** Its GI50 is > 100 µM.

**Q.** And the TGI (UACC-62 melanoma)?
**A.** The TGI was > 100 µM.

**Q.** What about the GI50 (SF-268 CNS) of the same molecule?
**A.** Its GI50 is > 100 µM.

**Q.** What about the TGI (SF-268 CNS) of the same molecule?
**A.** The TGI was > 100 µM.

**Q.** What about the GI50 (HS 578T breast) of the same molecule?
**A.** Its GI50 is > 100 µM.

**Q.** And the TGI (HS 578T breast)?
**A.** The TGI was > 100 µM.

**Q.** And the GI50 (NCI-H322M lung)?
**A.** The GI50 was > 100 µM.

**Q.** What about the TGI (NCI-H322M lung) of the same molecule?
**A.** Its TGI is > 100 µM.

**Q.** What about the GI50 (K-562 leukemia) of the same molecule?
**A.** The GI50 was > 100 µM.

**Q.** What about the TGI (K-562 leukemia) of the same molecule?
**A.** Its TGI is > 100 µM.

**Q.** What about the GI50 (KM12 colon) of the same molecule?
**A.** Its GI50 is > 100 µM.

**Q.** And the TGI (KM12 colon)?
**A.** The TGI was > 100 µM.

**Q.** What about the GI50 (UO-31 renal) of the same molecule?
**A.** Its GI50 is > 100 µM.

**Q.** And the TGI (UO-31 renal)?
**A.** The TGI was > 100 µM.

**Q.** And the GI50 (SNB-19 CNS)?
**A.** Its GI50 is > 100 µM.

**Q.** What about the TGI (SNB-19 CNS) of the same molecule?
**A.** The TGI was > 100 µM.

**Q.** And the GI50 (MDA-MB-231 breast)?
**A.** Its GI50 is > 100 µM.

**Q.** What about the TGI (MDA-MB-231 breast) of the same molecule?
**A.** The TGI was > 100 µM.

**Q.** And the GI50 (OVCAR-5 ovarian)?
**A.** The GI50 was > 100 µM.

**Q.** What about the TGI (OVCAR-5 ovarian) of the same molecule?
**A.** The TGI was > 100 µM.

**Q.** What about the GI50 (MDA-MB-435 melanoma) of the same molecule?
**A.** Its GI50 is > 100 µM.

**Q.** What about the TGI (MDA-MB-435 melanoma) of the same molecule?
**A.** Its TGI is > 100 µM.

**Q.** What about the GI50 (SNB-75 CNS) of the same molecule?
**A.** Its GI50 is > 100 µM.

**Q.** And the TGI (SNB-75 CNS)?
**A.** The TGI was > 100 µM.

**Q.** What about the GI50 (HT29 colon) of the same molecule?
**A.** The GI50 was > 100 µM.

**Q.** What about the TGI (HT29 colon) of the same molecule?
**A.** Its TGI is > 100 µM.

**Q.** What about the GI50 (OVCAR-4 ovarian) of the same molecule?
**A.** Its GI50 is > 100 µM.

**Q.** What about the TGI (OVCAR-4 ovarian) of the same molecule?
**A.** Its TGI is > 100 µM.

**Q.** And the GI50 (UACC-257 melanoma)?
**A.** Its GI50 is > 100 µM.

**Q.** And the TGI (UACC-257 melanoma)?
**A.** The TGI was > 100 µM.

**Q.** And the GI50 (NCI/ADR-RES ovarian)?
**A.** The GI50 was > 100 µM.

**Q.** What about the TGI (NCI/ADR-RES ovarian) of the same molecule?
**A.** The TGI was > 100 µM.

**Q.** What about the GI50 (NCI-H460 NSCLC) of the same molecule?
**A.** Its GI50 is > 100 µM.

**Q.** What about the TGI (NCI-H460 NSCLC) of the same molecule?
**A.** Its TGI is > 100 µM.

**Q.** What about the GI50 (MCF7 breast) of the same molecule?
**A.** The GI50 was > 100 µM.

**Q.** What about the TGI (MCF7 breast) of the same molecule?
**A.** The TGI was > 100 µM.

**Q.** And the GI50 (HCT-15 colon)?
**A.** The GI50 was > 100 µM.

**Q.** And the TGI (HCT-15 colon)?
**A.** Its TGI is > 100 µM.

**Q.** What about the GI50 (SR leukemia) of the same molecule?
**A.** Its GI50 is > 100 µM.

**Q.** What about the TGI (SR leukemia) of the same molecule?
**A.** The TGI was > 100 µM.

**Q.** And the GI50 (LOX IMVI melanoma)?
**A.** Its GI50 is > 100 µM.

**Q.** What about the TGI (LOX IMVI melanoma) of the same molecule?
**A.** The TGI was > 100 µM.

**Q.** What about the GI50 ([…]-0 renal) of the same molecule?
**A.** Its GI50 is > 100 µM.

**Q.** What about the TGI (786-0 renal) of the same molecule?
**A.** Its TGI is > 100 µM.
